Source: US7670613B2, “Androgen modulators” (Pfizer Inc., priority 2004, dated 2010)

What was measured:
male Syrian hamsters = experiment: Animal model for inhibition of sebum production (hamster ear); assay type: in vivo, Syrian hamster; conditions: topical 3.0 w/v %; for % CE reduction: cholesterol ester vs vehicle control; for % CE reduction / % WE reduction: twice daily, five days a week, 4 weeks, right ear; for Sum of WE & CE: sum of % WE and % CE reduction; for % WE reduction: wax ester vs vehicle control
Protocol: Animal Model for Inhibition of Sebum Production
Luderschmidt et al describes an animal model for testing whether compounds are capable of modulating sebum secretion. Arch. Derm. Res. 258, 185-191 (1977). This model uses male Syrian hamsters, whose ears contain sebaceous glands. The product of Example 14 was screened in this model.
Testing for sebum inhibition was carried out in the following manner. Male Syrian hamsters aged 9 to 10 weeks were introduced into the laboratory environment and acclimated for 2 weeks prior to use in the study. Each group consisted of 5 animals and run in parallel with vehicle and positive controls. Prior to administration, a sufficient quantity each compound was dissolved in 1 mL of a solvent consisting of ethanol, and propylene glycol (70/30% v/v) to achieve a final concentration of 3.0 w/v %.
Animals were dosed topically twice daily, five days a week, for 4 weeks. Each dose consisted of 25 micro liters of vehicle control or drug. The dose was applied to the ventral surfaces of both the right and left ears. All animals were sacrificed approximately 18-24 hours after the final dose. The right ears were collected from each animal and used for sebum analysis.
The ears were prepped for HPLC analysis in the following manner. One 8 mm distal biopsy punch was taken, just above the anatomical “V” mark in the ear to normalize the sample area. The punch was pulled apart. The ventral biopsy surface (the area where the topical dose was directly applied to the sebaceous glands) was retained for testing and the dorsal surface of the biopsy punch was discarded.
Tissue samples were blown with N2 gas and stored at −80° C. under nitrogen until HPLC analysis. In addition to ear samples, an aliquot of each drug and vehicle (at least 250 ul) was also stored at −80° C. for inclusion in the HPLC analysis.
HPLC analysis was carried out on an extract of the tissue sample. Tissue samples were contacted with 3 ml of solvent (a 4:1 admixture of 2,2,4-trimethylpentane and isopropyl alcohol). The mixture was shaken for 15 minutes and stored overnight at room temperature, protected from light. The next morning 1 milliliter of water was added to the sample and shaken for 15 minutes. The sample was then centrifuged at approximately 1500 rpm for 15 minutes. Two ml of the organic phase (top layer) was transferred to a glass vial, dried at 37° C., under nitrogen, for approximately 1 hour, and then lyophilized for approximately 48 hours. The samples were then removed from the lyophilizer and each vial was reconstituted with 600 μl of solvent A (trimethylpentane/tetrahydrofuran (99:1). The samples were then recapped and vortexed for 5 minutes.
200 μl of each sample was then transferred to a pre-labeled 200 μl HPLC vial with 200 μL glass inserts. The HPLC vials were placed in the autosampler tray for the Agilent 1100 series HPLC unit. The Agilent 1100 HPLC system consisted of a thermostated autosampler, a quarternary pump, a column heater, and an A/D interface module. All components were controlled by Agilent ChemStation software. A Waters Spherisorb S3W 4.6×100 mm analytical column was maintained at 30° C. by the Agilent column heater unit. The HPLC autosampler was programmed to maintain the sample temperature at 20 C. throughout the run.
10 uL of each sample was injected in triplicate into the column. Two solvents were used for the solvent gradient. Solvent A was an admixture of trimethylpentane and tetrahydrofuran (99:1). Solvent B was ethylacetate. The gradient utilized is described in the table below: […]
The Sedex 75 Evaporative Light Scattering Detector (ELSD) was operated at 45° C. with a gain of 5, and N2 pressure maintained at 3.1 bar. Analog signal obtained by the instrument was sent to the Agilent A/D interface module where it was converted to a digital output. The conversion was based on a 10000 mAU/volt set point and the data rate was set at 10 Hz (0.03 min). […]

male C3H/HeN mice = experiment: Modified telogen conversion assay; assay type: in vivo, mouse; conditions: topical 1% and 3% w/v, twice daily for 4 weeks, observed 35 days or longer
From the text: The telogen conversion assay measures the potential of a compound to convert the resting stage of the hair growth cycle (“telogen”) to the active stage of the hair growth cycle (“anagen”) in mice. This assay takes advantage of the fact that the fur (i.e. hair) of 7-week-old C3H/HeN mice is in the telogen phase. This phase continues until about 75 days of age. In this assay, selected areas of the mice are shaved, contacted with a test agent, or a control, and the difference in the rate of hair growth is measured (i.e. induction of the anagen phase). The first sign of anagen is the darkening of skin color as melanocytes in the follicles start to synthesize melanin, in preparation for the production of pigmented hairs. This model has a number of advantages. This includes the ready availability of female CH3HeN mice, the ability to screen large numbers of compounds quickly, and the ease of housing and handling such animals.
It has been discovered that male C3H/HeN mice may be used in the telogen conversion assay, when evaluating anti-androgen test compounds. Thus, the model relates to a modification of the existing telogen conversion assay. […]
The treatment area was observed and graded every other day for signs of hair growth. The hair growth response was quantified by recording, for each animal, the day on which signs of hair growth first appeared over the treated area. […]

Row | Structure (SMILES) | % CE reduction (male Syrian hamsters) [%] | Sum of WE & CE (male Syrian hamsters) | % WE reduction (male Syrian hamsters) [%] | Initiation of anagen (first signs of hair growth) versus vehicle control (male C3H/HeN mice)
1 | N#Cc1ccc(O[C@@H]2CCCC[C@H]2C#N)cc1C(F)(F)F (single isomer, unassigned) [Example 72, (trans)-(−)-4-(2-Cyano-cyclohexyloxy)-2-trifluoromethyl-benzonitrile] | 68 | 153 | 85 | –
2 | N#Cc1ccc(O[C@@H]2CCCCC2C#N)cc1C(F)(F)F (stereo in doubt) [Example 14, -4-(2-Cyano-cyclohexyloxy)-2-trifluoromethyl-benzonitrile] | 84 | 179 | 95 | –
3 | CC1CCCCC1Oc1ccc(C#N)c(C(F)(F)F)c1 (stereo not shown) [Example 8, 4-(2-Methyl-cyclohexyloxy)-2-trifluoromethyl-benzonitrile] | – | – | – | not initiated in either of the test groups prior to its occurrence in the vehicle control group
